Experiment [1] has as its system cucumber downy mildew pathogenic fungi. The experiment can be described thus: Test of toxicity of compound benziothiazolinone and iprodione on cucumber downy mildew. Conditions: for EC50: cucumber downy mildew, Table 3; for ATI (actual toxicity index): benziothiazolinone as standard = 100. The format is in vivo. Here is the method:
(§1) The incidence of whole cucumber leaves was investigated according to test grading level, and the disease index and the prevention and treatment effect were calculated.
(§2) The prevention and treatment effect was converted into probability values (y), the heights of the chemicals (μg/ml) were converted into logarithm values (x), the toxicity equation and the median inhibition concentration EC50 were calculated by the least square method, and the toxicity index level co-toxicity coefficient (CTC) of the chemicals was calculated according to the Sun Yunpei's method. Actual toxicity index(ATI)=(EC50 of the standard reagent/EC50 of the test reagent)×100 Theoretical toxicity index(TTI)=the toxicity index of chemicalA×the percentage of A in the mixture+the toxicity index of chemical B×the percentage of B in the mixture Co-toxicity coefficient(CTC)=[Actual toxicity index(ATI) of the mixture/Theoretical toxicity index(TTI) of the mixture][…]
3. Test of Toxicity of Compound Benziothiazolinone and Iprodione on Cucumber Downy Mildew

Experiment [2] shares this test system. As to the kind of experiment: Test of toxicity of compound benziothiazolinone and dithianon on cucumber downy mildew pathogenic fungi. The format is in vivo. Conditions: for EC50: cucumber downy mildew, Table 1; for ATI (actual toxicity index): benziothiazolinone as standard = 100. Here is the method: 1. Test of Toxicity of Compound Benziothiazolinone and Dithianon on Cucumber Downy Mildew Pathogenic Fungi
Subjects for Test: Cucumber Downy Mildew Pathogenic Fungi
as §1, §2

The test system is the same in experiment [3]. The experiment can be described thus: Test of toxicity of compound benziothiazolinone and epoxiconazol on cucumber downy mildew. Format: in vivo. Conditions: for ATI (actual toxicity index): benziothiazolinone as standard = 100; for EC50: cucumber downy mildew, Table 4. As for the experimental part: as §1, §2
4. Test of Toxicity of Compound Benziothiazolinone and Epoxiconazol on Cucumber Downy Mildew

Experiment [4] shares this test system. As to the kind of experiment: Test of toxicity of compound benziothiazolinone and dimethomorph on cucumber downy mildew. Conditions: for EC50: cucumber downy mildew, Table 2; for ATI (actual toxicity index): benziothiazolinone as standard = 100. The format is in vivo. Here is the method: as §1, §2
2. Test of Toxicity of Compound Benziothiazolinone and Dimethomorph on Cucumber Downy Mildew

The subject of a further experiment is oomycetes fungi. Conditions: formation stages of sporangiophores and oospores of oomycetes; cited from earlier work.
Where [5] appears, read: Cucumis sativus, read-out: EC50.

In brackets after ≈: the same amount, converted by molar mass.

As to `CC(C)NC(=O)N1CC(=O)N(c2cc(Cl)cc(Cl)c2)C1=O` [Iprodione], in experiment [1] (setting [5]), the EC50 stood at 5.82 mg/L (≈ 17.6 µM). In experiment [1], the “ATI (actual toxicity index)” value came out at 72.34.
For `N#Cc1sc2c(=O)c3ccccc3c(=O)c=2sc1C#N` [Dithianon], in experiment [2] (setting [5]), the concentration for a half-maximal effect (EC50) is 5.41 mg/L (≈ 18.3 µM). Further, the “ATI (actual toxicity index)” value in experiment [2] was 60.1.
Turning to `Fc1ccc([C@]2(Cn3cncn3)O[C@H]2c2ccccc2Cl)cc1` [Epoxiconazol], in experiment [3], the “ATI (actual toxicity index)” value is listed as 89.65 and the 50% effective concentration (EC50) turned out to be 4.25 mg/L (≈ 12.9 µM).
As to `COc1ccc(C(=CC(=O)N2CCOCC2)c2ccc(Cl)cc2)cc1OC` [Dimethomorph], the EC50 in experiment [4] (setting [5]) is 6.36 mg/L (≈ 16.4 µM). In addition, in experiment [4], the “ATI (actual toxicity index)” value is reported as 63.9. In addition, the “concentration at which inhibited” value in the experiment on oomycetes fungi is 0.25 µg/mL.
Regarding `O=c1[nH]sc2ccccc12` [Benziothiazolinone], the “ATI (actual toxicity index)” value worked out at 100.0 in experiment [4], 100.00 in experiment [1], 100.00 in experiment [3] and 100.0 in experiment [2]. The “EC50” value in experiment [4] stood at 4.08 mg/L (≈ 27 µM); in experiment [1], 4.21 mg/L (≈ 27.8 µM); in experiment [3], 3.81 mg/L (≈ 25.2 µM); in experiment [2], 3.25 mg/L (≈ 21.5 µM).

The record behind these values is US9282744B2, “Synergistic fungicide composition” (JIANGSU HUIFENG AGROCHEMICAL CO., LTD., priority 2012, dated 2016).
